Measured values as given in ChEMBL document CHEMBL1201862, “PubChem BioAssay data set” (2004).
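How tested: cells in 96-well plates exposed to compound for 48 hours at five concentrations. Abbreviation: GI50, concentration required for 50% inhibition of growth.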 Activity calls are given as the source filed them. No stated cut-off is given here; in the data, active = GI50 up to about 1.1 µM and inactive = higher.

Key:
Experiment in all cases: NCI-60 cell line screen, 48 h
UACC-62 = system: UACC-62
SF-539 = system: SF-539
SNB-75 = system: SNB-75
HCC 2998 = system: HCC 2998
LXFL 529 = system: LXFL 529
786-0 = system: 786-0
SF-268 = system: SF-268
SW-620 = system: SW-620
RPMI-8226 = system: RPMI-8226
HL-60 = system: HL-60
M19-MEL = system: M19-MEL
K562 = system: K562
TK-10 = system: TK-10
HT-29 = system: HT-29
SR = system: SR
HCT-116 = system: HCT-116
SNB-78 = system: SNB-78
OVCAR-5 = system: OVCAR-5
COLO 205 = system: COLO 205

Measured: GI50

Nc1nncc2c1c(Br)cn2C1OC(CO)C(O)C1O (configuration not stated)
inactive: UACC-62 56.9 µM | SF-539 30.5 µM | SNB-75 13.7 µM | HCC 2998 5.27 µM | LXFL 529 23.7 µM | 786-0 21.1 µM | SF-268 35.1 µM | SW-620 5.69 µM | RPMI-8226 10.2 µM | HL-60 3.73 µM | M19-MEL > 100 µM | K562 5.73 µM | TK-10 51.4 µM | HT-29 8.39 µM | SR 2.99 µM | HCT-116 9.68 µM | SNB-78 > 66.4 µM | OVCAR-5 > 62.2 µM | COLO 205 48.6 µM

Cc1ccc([N+](=O)[O-])cc1NC(=O)/C(CC(=O)c1sc(C(N)=S)nc1C)=N\N
inactive: UACC-62 > 100 µM | SF-539 > 100 µM | SNB-75 > 100 µM | HCC 2998 > 100 µM | LXFL 529 41.7 µM | 786-0 40.6 µM | SF-268 > 100 µM | SW-620 > 100 µM | RPMI-8226 > 100 µM | HL-60 43.9 µM | M19-MEL 71.8 µM | K562 41.4 µM | TK-10 > 100 µM | HT-29 72.3 µM | SR 88.9 µM | HCT-116 71 µM | SNB-78 > 100 µM | OVCAR-5 > 100 µM

CCOC(=O)N1N=NC2C3OC(C[C@@]3(C#N)OC(C)=O)[C@H]21 (some centres not stated)
inactive: UACC-62 > 100 µM | SF-539 > 100 µM | SNB-75 > 100 µM | HCC 2998 > 100 µM | LXFL 529 > 100 µM | 786-0 > 100 µM | SF-268 51.9 µM | SW-620 > 100 µM | RPMI-8226 > 100 µM | HL-60 > 100 µM | M19-MEL > 100 µM | K562 > 100 µM | TK-10 > 100 µM | HT-29 > 100 µM | SR > 100 µM | HCT-116 > 100 µM | SNB-78 > 100 µM | OVCAR-5 > 100 µM | COLO 205 > 100 µM

COc1cc2cccc(/N=C\c3ccccc3Cl)c2cc1OC
inactive: UACC-62 66.5 µM | SF-539 > 100 µM | SNB-75 > 100 µM | HCC 2998 > 100 µM | LXFL 529 > 100 µM | 786-0 > 100 µM | SF-268 > 100 µM | SW-620 26.5 µM | RPMI-8226 78.2 µM | HL-60 4.48 µM | M19-MEL > 100 µM | K562 4.8 µM | TK-10 > 100 µM | HT-29 79.6 µM | SR 3.94 µM | HCT-116 80.7 µM | SNB-78 > 100 µM | OVCAR-5 > 100 µM | COLO 205 > 100 µM

CC(=O)c1ccc(NC(=O)C(=O)Nn2c(S)nc3ccccc3c2=O)cc1
inactive: UACC-62 > 100 µM | SF-539 > 100 µM | SNB-75 > 100 µM | HCC 2998 > 100 µM | LXFL 529 > 100 µM | 786-0 > 100 µM | SF-268 > 100 µM | SW-620 > 100 µM | RPMI-8226 > 100 µM | HL-60 > 100 µM | M19-MEL > 100 µM | K562 > 100 µM | TK-10 > 100 µM | HT-29 > 100 µM | SR > 100 µM | HCT-116 > 100 µM | SNB-78 > 100 µM | OVCAR-5 > 100 µM | COLO 205 > 100 µM

C/C(CC(=O)NC1=CC=C(NC(=O)C/C(C)=N\Nc2ccccc2)CC1)=N/Nc1ccccc1
inactive: UACC-62 > 100 µM | SF-539 > 100 µM | SNB-75 > 100 µM | HCC 2998 > 100 µM | LXFL 529 > 100 µM | 786-0 > 100 µM | SF-268 > 100 µM | RPMI-8226 > 100 µM | HL-60 50.1 µM | M19-MEL > 100 µM | K562 75.7 µM | TK-10 > 100 µM | HT-29 > 100 µM | SR 37.8 µM | HCT-116 > 100 µM | SNB-78 > 100 µM | OVCAR-5 > 100 µM | COLO 205 27.1 µM
